Results from ChEMBL document CHEMBL1240429, “N'-[(5-chloro-3-methyl-1-phenyl-1H-pyrazol-4-yl)methylene] 2/4-substituted hydrazides: synthesis and anticonvulsant activity” (Eur J Med Chem, 2010).
Activity calls are given as the source filed them. The calls are words filed in the database; no cut-off is given here.

Tests used:
[1] = Neurotoxicity in ip dosed albino mouse assessed as inability to maintain equilibrium on rotarod after 30 mins by rotarod test; type: toxicity, organism-based; settings: in vivo
Mus musculus [2] = experiment: Anticonvulsant activity in ip dosed albino mouse assessed as protection against MES-induced seizures after 30 mins; type: functional; settings: 0.5 h
Mus musculus [3] = experiment: Anticonvulsant activity in ip dosed albino mouse assessed as protection against scPTZ-induced seizures after 4 hrs; type: functional
Mus musculus [4] = experiment: Anticonvulsant activity in ip dosed albino mouse assessed as protection against scPTZ-induced seizures after 30 mins; type: functional; settings: 0.5 h
Mus musculus [5] = experiment: Anticonvulsant activity in ip dosed albino mouse assessed as protection against MES-induced seizures after 4 hrs; type: functional

SMILES	TD50 at 0.5 h [1]	ED50 (Mus musculus [2])	ED50 (Mus musculus [3])	ED50 (Mus musculus [4])	ED50 (Mus musculus [5])
Cc1nn(-c2ccccc2)c(Cl)c1/C=N/NC(=O)COc1ccccc1	300 mg/kg				
Cc1nn(-c2ccccc2)c(Cl)c1/C=N/NC(=O)Cc1cccc2ccccc12		100 mg/kg	inactive	300 mg/kg	100 mg/kg
Cc1nn(-c2ccccc2)c(Cl)c1/C=N/NC(=O)c1ccc([N+](=O)[O-])cc1		100 mg/kg	inactive	300 mg/kg	300 mg/kg
Cc1ccc(C(=O)N/N=C/c2c(C)nn(-c3ccccc3)c2Cl)cc1	100 mg/kg				
O=C1NC(=O)C(c2ccccc2)(c2ccccc2)N1 [PHENYTOIN]		30 mg/kg			30 mg/kg
Cc1nn(-c2ccccc2)c(Cl)c1/C=N/NC(=O)c1ccc(Cl)cc1	300 mg/kg	100 mg/kg	100 mg/kg	100 mg/kg	300 mg/kg
Cc1nn(-c2ccccc2)c(Cl)c1/C=N/NC(=O)Cc1ccc(Cl)cc1	300 mg/kg	100 mg/kg	300 mg/kg	100 mg/kg	300 mg/kg
Cc1nn(-c2ccccc2)c(Cl)c1/C=N/NC(=O)c1ccc(F)cc1		100 mg/kg	100 mg/kg	100 mg/kg	100 mg/kg
Cc1nn(-c2ccccc2)c(Cl)c1/C=N/NC(=O)c1ccccc1	100 mg/kg				
Cc1nn(-c2ccccc2)c(Cl)c1/C=N/NC(=O)c1ccc(Cl)cc1Cl		300 mg/kg	inactive	300 mg/kg	inactive
CCCC(CCC)C(=O)[O-].[Na+] [VALPROATE SODIUM]			inactive	300 mg/kg	
